Results on 6 compounds are retold here after US20090105278A1, “Selective inhibitors of human corticosteroid syntheses” (Universitat Des Saarlandes, priority 2004, published 2009).

Read-outs that look alike come from different tables or passages of the source.

One data set has as its target T1, human CYP17 (Homo sapiens, UniProt P05093).
T1 construct: made in house; host or cells: E. coli pJL17/OR (membrane fraction)
T1 sequence (P05093 1-508): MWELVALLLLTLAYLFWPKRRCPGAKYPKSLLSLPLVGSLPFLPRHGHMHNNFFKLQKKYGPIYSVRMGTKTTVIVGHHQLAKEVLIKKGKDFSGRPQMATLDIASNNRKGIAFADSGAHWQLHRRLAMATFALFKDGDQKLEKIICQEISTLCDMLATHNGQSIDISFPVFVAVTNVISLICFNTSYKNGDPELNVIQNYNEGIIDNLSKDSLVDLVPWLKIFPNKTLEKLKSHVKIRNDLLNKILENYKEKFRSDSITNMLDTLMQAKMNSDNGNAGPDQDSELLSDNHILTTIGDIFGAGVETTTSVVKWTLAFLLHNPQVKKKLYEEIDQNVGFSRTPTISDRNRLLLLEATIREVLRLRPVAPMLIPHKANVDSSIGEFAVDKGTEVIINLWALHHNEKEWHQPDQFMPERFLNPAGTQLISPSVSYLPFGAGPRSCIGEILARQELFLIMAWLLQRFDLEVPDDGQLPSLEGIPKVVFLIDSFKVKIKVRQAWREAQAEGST
The data set can be described thus: Percent inhibition of CYP17 (membrane fraction of E. coli pJL17/OR). The following applies: for inhibition at 2.5 µM: read-out: % Inhibition human CYP17. The format is biochemical. As to the method: The recombinantly altered E. coli strain pJL17/OR, in which human CYP17 and rat NADPH-P450-reductase were coexpressed, was grown and stored according to the method of Ehmer et al. (Ehmer, P. B. et al., J. Steroid Biochem. Mol. Biol. 75: 57-63 (2000)). For isolating the membrane fraction, 5 ml of the bacterial cell suspension with an OD578 of 50 was washed with phosphate buffer (0.05 M; pH 7.4; 1 mM MgCl2; 0.1 mM EDTA and 0.1 mM DTT). The bacteria were removed by centrifugation and resuspended in 10 ml of ice cold TES buffer (0.1 M tris-acetate; pH 7.8; 0.5 mM EDTA; 0.5 M sucrose). Four milligrams of lysozyme in 10 ml of ice cold water was added to obtain a final concentration of 0.2 mg/ml. This was followed by incubation for 30 minutes under continued shaking on ice. The spheroblasts were obtained by a renewed centrifugation step at 12,000 g for 10 min and again resuspended in 3 ml of ice cold phosphate buffer (composition see above, additionally 0.5 mM PMSF).
After freezing and thawing, the cells were lysed on ice with an ultrasonic disintegrator. The whole cells and the cell debris were centrifuged off at 3000 g for 7 min. The supernatant was again centrifuged at 50,000 g for 20 min at 4° C. A membrane pellet sedimented and was resuspended in 2 ml of phosphate buffer (composition see above) with […] by means of an Ultra-Turrax mixer. […] Aliquots with an approximate protein concentration of 5 mg/ml were stored at −70° C. until use.
Control incubations were performed in parallel with 5 μl DMSO without urea. The reaction was started by adding 50 μl of a membrane suspension diluted 1 to 5 in phosphate buffer (0.8 to 1 mg of protein per ml). After thoroughly mixing the components, the mixture was incubated at 37° C. for 30 min.
The steroids were extracted with 1 ml of EtOAc. […] After the centrifugation, 800 μl of the organic phase was removed, placed into a new vessel and evaporated to dryness. The samples were dissolved in 50 μl of a water-methanol mixture (1:1) and analyzed by HPLC. The substrate conversion was calculated from the ratio of the areas of the product peaks (17α-hydroxyprogesterone and 16α-hydroxyprogesterone) to that of the substrate peak. The activity of the inhibitors was calculated from the reduced substrate conversion after the addition of inhibitors in accordance with the following formula: […]

Another data set has as its target T2, human CYP11B2 (Homo sapiens, UniProt P19099).
T2 sequence (P19099 25-503): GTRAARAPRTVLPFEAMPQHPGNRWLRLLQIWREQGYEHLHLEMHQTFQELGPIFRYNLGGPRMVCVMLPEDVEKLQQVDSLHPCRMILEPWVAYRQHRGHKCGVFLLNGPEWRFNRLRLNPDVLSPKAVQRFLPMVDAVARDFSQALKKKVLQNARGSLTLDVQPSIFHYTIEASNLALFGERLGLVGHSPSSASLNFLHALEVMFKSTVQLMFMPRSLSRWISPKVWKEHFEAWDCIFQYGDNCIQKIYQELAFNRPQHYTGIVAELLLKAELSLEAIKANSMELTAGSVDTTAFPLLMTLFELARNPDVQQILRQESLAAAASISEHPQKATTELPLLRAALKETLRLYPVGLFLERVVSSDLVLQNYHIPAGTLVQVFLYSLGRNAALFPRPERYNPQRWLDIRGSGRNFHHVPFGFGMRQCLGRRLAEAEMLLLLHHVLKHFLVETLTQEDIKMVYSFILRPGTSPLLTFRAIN
The data set can be described thus: Screening test in transgenic fission yeast (S. pombe PE1) expressing human CYP11B2. The class given is cell-based. The arrangement: expressed in transfected cells. The following applies: S. pombe cells which express human CYP11B2, deoxycorticosterone substrate 100 nM, inhibitor 500 nM; for inhibition at 0.5 µM: read-out: % Inhibition human hCYP11B2. As to the method:
492.5 μl of this cell suspension was admixed with 5 μl of inhibitor solution (50 μM of the compound to be tested in ethanol or DMSO) and incubated at 32° C. for 15 min. Controls were admixed with 5 μl of ethanol. […] The test was quenched by extracting the sample with 500 μl of EtOAc. After centrifugation (10,000 g, 2 min), the EtOAc phase was removed and evaporated to dryness. […] The reaction of the substrate to form corticosterone was analyzed by HPTLC (see below).
The quantification of the spots for the substrate deoxycorticosterone and the products corticosterone (and, if detectable, 18-hydroxycorticosterone and aldosterone) was effected with the related evaluation program AIDA. […] The calculation of the conversion rate was effected according to equation 1.
The plate was developed twice with the mobile solvent chloroform:methanol:water (300:20:1). Unlabeled 11-deoxycorticosterone and corticosterone were applied as a reference for the CYP11B1 reaction. For the CYP11B2 reaction, 11-deoxycorticosterone, corticosterone, 18-hydroxycorticosterone and aldosterone were used as references. The detection of the unlabeled references was effected at 260 nm. Subsequently, imaging plates (BAS MS2340, for ^14C samples, Raytest, Straubenhardt, Germany) were exposed to the HPTLC plates for 48 h. The imaging plates were scanned with the phosphoimager system Fuji FLA 3000 (Raytest, Straubenhardt, Germany), and the steroids were quantified.

Another data set has as its target T3, bovine adrenal CYP11B (Bos taurus, UniProt P15150).
T3 sequence (P15150 25-503): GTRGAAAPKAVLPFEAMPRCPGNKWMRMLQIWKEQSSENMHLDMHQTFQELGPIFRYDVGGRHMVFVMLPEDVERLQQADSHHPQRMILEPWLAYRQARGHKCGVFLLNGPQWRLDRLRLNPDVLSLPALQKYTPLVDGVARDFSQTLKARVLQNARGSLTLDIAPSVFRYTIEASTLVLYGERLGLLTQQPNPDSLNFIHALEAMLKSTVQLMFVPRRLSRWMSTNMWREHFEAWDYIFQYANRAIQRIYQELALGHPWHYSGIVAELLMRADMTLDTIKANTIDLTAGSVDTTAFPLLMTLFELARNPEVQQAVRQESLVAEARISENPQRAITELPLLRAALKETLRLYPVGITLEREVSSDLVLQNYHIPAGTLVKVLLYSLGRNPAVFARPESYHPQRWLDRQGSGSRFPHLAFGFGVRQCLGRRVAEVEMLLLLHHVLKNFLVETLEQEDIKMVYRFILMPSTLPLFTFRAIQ
The data set can be described thus: Percent inhibition of bovine CYP11B (adrenal mitochondria). The following applies: corticosterone substrate 200 μM, inhibitor 1 μM; for % Inhibition bovine bCYP11B: bovine adrenal mitochondria, 1 mg/ml protein; for inhibition at 1 µM: read-out: % Inhibition bovine bCYP11B, bovine adrenal mitochondria, 1 mg/ml protein.

The next data set deals with T4, CYP11B1 in NCI-H295R (Homo sapiens, UniProt P15538).
T4 sequence (P15538 25-503): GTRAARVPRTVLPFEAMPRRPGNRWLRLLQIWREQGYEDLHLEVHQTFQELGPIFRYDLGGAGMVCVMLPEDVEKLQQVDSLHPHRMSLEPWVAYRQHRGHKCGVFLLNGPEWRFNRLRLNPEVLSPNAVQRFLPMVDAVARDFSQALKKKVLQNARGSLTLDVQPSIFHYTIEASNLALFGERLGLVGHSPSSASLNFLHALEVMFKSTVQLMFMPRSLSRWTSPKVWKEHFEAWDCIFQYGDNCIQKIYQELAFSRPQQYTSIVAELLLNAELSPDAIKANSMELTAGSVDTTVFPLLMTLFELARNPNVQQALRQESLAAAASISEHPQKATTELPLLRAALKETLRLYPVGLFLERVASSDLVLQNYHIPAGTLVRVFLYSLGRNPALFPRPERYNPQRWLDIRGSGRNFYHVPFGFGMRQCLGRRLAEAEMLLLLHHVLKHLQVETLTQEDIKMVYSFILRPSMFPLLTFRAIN
The data set can be described thus: cell-based. The following applies: read-out: NCI-H295R CYP11B1 RSS % inhibition. As to the method: For testing inhibitors, a preincubation for one hour was performed first, followed by starting the enzyme reactions by adding substrate (500 nM).
A) Seeding: The cell lines were grown and passaged until a confluent cell lawn had formed. By tryptic treatment, the cell material of at least two culture dishes was obtained, and the number of cells determined by means of a CASY TT cell counter (150 μl capillary). […] With the cell material of two confluently grown culture dishes, two 24-well plates could be coated. After 24 hours, the cells had grown on, and after another 24 hours' stimulation phase with a solution containing potassium ions (final concentration: 20 mM KCl), could be employed for the test.
Of this solution, 5 μl each was added to the samples.
Then, the 24-well plate was stored in a CO2 incubator at 37° C. and […]. The incubation time was 3 hours when deoxycorticosterone was used as the substrate, 24 Hours for corticosterone, and 48 hours for deoxycortisol.
Test stop: After elapse of the incubation times, the plates were briefly swung, and then the content of the wells was removed quantitatively if possible and inactivated by mixing with 1000 μl of dichloromethane in a 2 ml Eppendorf vessel. After 10 minutes of shaking, it was centrifuged for phase separation, and the […], organic phase was transferred into a 1.5 ml Eppendorf vessel. […]

The next data set deals with ACTH-stimulated rats. The conditions noted are these: Hausler et al. 1989; cited from earlier work.
Setting [1] is: E. coli which expresses human CYP17, 5 mg/ml protein, progesterone substrate 2.5 μM, inhibitor 2.5 μM.

For “5-[(Z)-(5-Fluoro-2,3-dihydro-1H-indene-1-ylidene)methyl]-1H-imidazolium oxalate [Compound 47b]”, the “% Inhibition human CYP17” value at human CYP17 (setting [1]) came out at 11%. The “% Inhibition human hCYP11B2” value on human CYP11B2 is 58%. Further, the “% Inhibition bovine bCYP11B” value on bovine adrenal CYP11B was found to be 64%.

In turn, `N#Cc1ccc2c(c1)CCC/C2=C/c1cnc[nH]1.O=C(O)C(=O)O` [Compound 44b, (5Z)-5-(1H-Imidazole-5-ylmethylene)-5,6,7,8-tetrahydronaphthalene-2-carbonitrile oxalate] had a melting point of 206 °C. Besides, the inhibition at 2.5 µM at human CYP17 (setting [1]) was determined as 4%. At human CYP11B2, the inhibition at 0.5 µM was determined as 54%. For the same compound, on bovine adrenal CYP11B (oxalate), the “% Inhibition bovine bCYP11B” value came to 97%. For the same compound, on bovine adrenal CYP11B, the inhibition at 1 µM was roughly 90%.

Compound `N#Cc1ccc2c(c1)CC/C2=C\c1cnc[nH]1.O=C(O)C(=O)O` [Compound 45a, (1E)-1-(1H-Imidazole-5-ylmethylene)indane-5-carbonitrile oxalate] gave a melting point of 217 °C. Moreover, the inhibition at 2.5 µM on human CYP17 (setting [1]) is 21%. Besides, the inhibition at 0.5 µM on human CYP11B2 came out at 49%. For the same compound, the “% Inhibition bovine bCYP11B” value at bovine adrenal CYP11B (oxalate) was 81%. Also, the inhibition at 1 µM at bovine adrenal CYP11B is roughly 90%.

Regarding `N#Cc1ccc2c(c1)CC/C2=C/c1cnc[nH]1.O=C(O)C(=O)O` [Compound 45b, (1Z)-1-(1H-Imidazole-5-ylmethylene)indane-5-carbonitrile oxalate], the melting point is 207 °C. In addition, on human CYP17 (setting [1]), the inhibition at 2.5 µM amounted to 4%. In addition, the inhibition at 0.5 µM on human CYP11B2 was 65%. The “% Inhibition bovine bCYP11B” value on bovine adrenal CYP11B (oxalate) is reported as 100%. Moreover, the inhibition at 1 µM on bovine adrenal CYP11B is roughly 90%.

Consider `Fc1ccc2c(c1)CC/C2=C\c1cnc[nH]1` [Compound 47a, 5-[(E)-(5-Fluoro-2,3-dihydro-1H-indene-1-ylidenemethyl]-1H-imidazolium chloride], for which the inhibition at 2.5 µM on human CYP17 (setting [1]) worked out at 16%. Also, on human CYP11B2, the inhibition at 0.5 µM worked out at 59%. Also, on bovine adrenal CYP11B, the inhibition at 1 µM amounted to 67%.

On to `N#Cc1ccc(C2CCCc3cncn32)cc1` (stereo not drawn) [Fadrozole, 4-(5,6,7,8-tetrahydroimidazo[1,5-a]pyridine-5-yl)benzonitrile, reference compound], for which the inhibition at 2.5 µM on human CYP17 was found to be 7%; on CYP11B1 in NCI-H295R, 92%. Also, the “Aldosterone and corticosterone levels” value in the data set with ACTH-stimulated rats was “lowers the aldosterone and corticosterone levels”.

The term melting point denotes the temperature, or range, at which the solid turns liquid.
